Source: US9179674B2, “Macrocyclic picolinamide compounds with fungicidal activity” (DOW AGROSCIENCES LLC, priority 2013, dated 2015)

Columns and labels:
Assay type in all cases: in vivo
Cercospora beticola = test: Leaf Spot of Sugar Beets fungicidal activity (CERCBE); conditions: 24 h, 1 Day Protectant, sugar beet, read-out: Disease Control CERCBE 1DP
Experimental: Technical grades of materials were dissolved in acetone, which were then mixed with nine volumes of water containing 110 ppm Triton X-100. The fungicide solutions were applied onto wheat seedlings using an automated booth sprayer to run-off. All sprayed plants were allowed to air dry prior to further handling. All fungicides were evaluated using the aforementioned method for their activity vs. all target diseases. Wheat leaf blotch and brown rust activity were also evaluated using track spray applications, in which case the fungicides were formulated as EC formulations, containing 0.1% Trycol 5941 in the spray solutions. Wheat plants (variety Yuma) were grown from seed in a greenhouse in 50% mineral soil/50% soil-less Metro mix until the first leaf was fully emerged, with 7-10 seedlings per pot. These plants were inoculated with an aqueous spore suspension of Septoria tritici either prior to or after fungicide treatments. After inoculation the plants were kept in 100% relative humidity (one day in a dark dew chamber followed by two to three days in a lighted dew chamber at 20° C.) to permit spores to germinate and infect the leaf. The plants were then transferred to a greenhouse set at 20° C. for disease to develop. When disease symptoms were fully expressed on the 1st leaves of untreated plants, infection levels were assessed on a scale of 0 to 100 percent disease severity. Percent disease control was calculated using the ratio of disease severity on treated plants relative to untreated plants. Evaluation of Fungicidal Activity: Leaf Spot of Sugar Beets (Cercospora beticola; Bayer Code CERCBE) Sugar beet plants (variety HH88) were grown in soil-less Metro mix and trimmed regularly to maintain a uniform plant size prior to test. Plants were inoculated with a spore suspension 24 hr after fungicide treatments. Inoculated plants were kept in a dew chamber at 22° C. for 48 hr then incubated in a greenhouse set at 24° C. under a clear plastic hood with bottom ventilation until disease symptoms were fully expressed. Fungicide formulation, application and disease assessment on the sprayed leaves followed the procedures as described in the Example A.

Rhyncosporium secalis = test: Barley Scald fungicidal activity (RHYNSE); conditions: Hordeum vulgare, 24 h, 1 Day Protectant, read-out: Disease Control RHYNSE 1DP
Experimental: Technical grades of materials were dissolved in acetone, which were then mixed with nine volumes of water containing 110 ppm Triton X-100. The fungicide solutions were applied onto wheat seedlings using an automated booth sprayer to run-off. All sprayed plants were allowed to air dry prior to further handling. All fungicides were evaluated using the aforementioned method for their activity vs. all target diseases. Wheat leaf blotch and brown rust activity were also evaluated using track spray applications, in which case the fungicides were formulated as EC formulations, containing 0.1% Trycol 5941 in the spray solutions. Wheat plants (variety Yuma) were grown from seed in a greenhouse in 50% mineral soil/50% soil-less Metro mix until the first leaf was fully emerged, with 7-10 seedlings per pot. These plants were inoculated with an aqueous spore suspension of Septoria tritici either prior to or after fungicide treatments. After inoculation the plants were kept in 100% relative humidity (one day in a dark dew chamber followed by two to three days in a lighted dew chamber at 20° C.) to permit spores to germinate and infect the leaf. The plants were then transferred to a greenhouse set at 20° C. for disease to develop. When disease symptoms were fully expressed on the 1st leaves of untreated plants, infection levels were assessed on a scale of 0 to 100 percent disease severity. Percent disease control was calculated using the ratio of disease severity on treated plants relative to untreated plants. Evaluation of Fungicidal Activity: Barley Scald (Rhyncosporium secalis; Bayer Code […]) Barley seedlings (variety Harrington) were propagated in soil-less Metro mix, with each pot having 8 to 12 plants, and used in the test when first leaf was fully emerged. Test plants were inoculated by an aqueous spore suspension of Rhyncosporium secalis 24 hr after fungicide treatments. After inoculation the plants were kept in a dew room at 20° C. with 100% relative humidity for 48 hr. The plants were then transferred to a greenhouse set at 20° C. for disease to develop. Fungicide formulation, application and disease assessment on the sprayed leaves followed the procedures as described in the Example A.

Erysiphe cichoracearum = test: Powdery Mildew of Cucumber fungicidal activity (ERYSCI); conditions: Golovinomyces cichoracearum, 24 h, 1 Day Protectant, read-out: Disease Control ERYSCI 1DP
Experimental: Technical grades of materials were dissolved in acetone, which were then mixed with nine volumes of water containing 110 ppm Triton X-100. The fungicide solutions were applied onto wheat seedlings using an automated booth sprayer to run-off. All sprayed plants were allowed to air dry prior to further handling. All fungicides were evaluated using the aforementioned method for their activity vs. all target diseases. Wheat leaf blotch and brown rust activity were also evaluated using track spray applications, in which case the fungicides were formulated as EC formulations, containing 0.1% Trycol 5941 in the spray solutions. Wheat plants (variety Yuma) were grown from seed in a greenhouse in 50% mineral soil/50% soil-less Metro mix until the first leaf was fully emerged, with 7-10 seedlings per pot. These plants were inoculated with an aqueous spore suspension of Septoria tritici either prior to or after fungicide treatments. After inoculation the plants were kept in 100% relative humidity (one day in a dark dew chamber followed by two to three days in a lighted dew chamber at 20° C.) to permit spores to germinate and infect the leaf. The plants were then transferred to a greenhouse set at 20° C. for disease to develop. When disease symptoms were fully expressed on the 1st leaves of untreated plants, infection levels were assessed on a scale of 0 to 100 percent disease severity. Percent disease control was calculated using the ratio of disease severity on treated plants relative to untreated plants. Evaluation of Fungicidal Activity: Powdery Mildew of Cucumber (Erysiphe cichoracearum; Bayer Code […]) Cucumber seedlings (variety Bush Pickle) were grown in soil-less Metro mix, with one plant per pot, and used in the test when 12 to 14 days old. Plants were inoculated with a spore suspension 24 hr following fungicide treatments. After inoculation the plants remained in the greenhouse set at 20° C. until disease was fully expressed. Fungicide formulation, application and disease assessment on the sprayed leaves followed the procedures as described in the Example A.

| Structure (SMILES) | pest or weed control at 100 ppm (Cercospora beticola) [%] | pest or weed control at 100 ppm (Rhyncosporium secalis) [%] | pest or weed control at 100 ppm (Erysiphe cichoracearum) [%] |
| --- | --- | --- | --- |
| COc1ccnc(C(=O)N[C@H]2COC[C@H](Cc3cccc4ccccc34)[C@@H](OC(=O)C(C)C)[C@H](C)OC2=O)c1OCOC(C)=O [Compound F83, (3S,6S,7R,8S)-3-(3-(acetoxymethoxy)-4-methoxypicolin-amido)-6-methyl-8-(naphthalen-1-ylmethyl)-4-oxo-1,5-dioxonan-7-yl isobutyrate] | 80 to 100 | 80 to 100 | – |
| COc1ccnc(C(=O)N[C@H]2COC[C@H](Cc3ccc(Cl)cc3Cl)[C@@H](OC(=O)C(C)C)[C@H](C)OC2=O)c1OC(C)=O [Compound F73] | 80 to 100 | 80 to 100 | 0 to 80 |
| COc1ccnc(C(=O)N[C@H]2COC[C@H](CC3CCCC3)[C@@H](OC(=O)C(C)C)[C@H](C)OC2=O)c1OCOC(C)=O [Compound F114] | 80 to 100 | 80 to 100 | 80 to 100 |
| COc1ccnc(C(=O)N[C@H]2COC[C@H](Cc3ccc(C)cc3)[C@@H](OCC(C)C)[C@H](C)OC2=O)c1OCOC(C)=O [Compound F117] | 80 to 100 | – | 80 to 100 |
| COc1ccnc(C(=O)N[C@H]2COC[C@H](CCc3ccccc3)[C@@H](OCC(C)C)[C@H](C)OC2=O)c1OCOC(C)=O [Compound F82] | 0 to 80 | 80 to 100 | 0 to 80 |
| COc1ccnc(C(=O)N[C@H]2COC[C@H](Cc3ccc(F)cc3)[C@@H](OCC(C)C)[C@H](C)OC2=O)c1OC(C)=O [Compound F60] | 80 to 100 | – | 80 to 100 |
| CCCCCO[C@@H]1[C@@H](Cc2ccc(Cl)cc2Cl)COC[C@H](NC(=O)c2nccc(OC)c2OCOC(=O)COCC)C(=O)O[C@H]1C [Compound F122] | 80 to 100 | 80 to 100 | 0 to 80 |
| COc1ccnc(C(=O)N[C@H]2COC[C@H](CC(F)(F)F)[C@@H](OC3CCCC3)[C@H](C)OC2=O)c1OCOC(C)=O [Compound F105] | 80 to 100 | 80 to 100 | 0 to 80 |
| COc1ccnc(C(=O)N[C@H]2COC[C@H](CCC(C)C)[C@@H](OC(=O)C3CC3)[C@H](C)OC2=O)c1OCOC(C)=O [Compound F108] | 80 to 100 | 80 to 100 | 80 to 100 |
| COc1ccnc(C(=O)N[C@H]2COC[C@H](Cc3ccc(C)cc3)[C@@H](OCC(C)C)[C@H](C)OC2=O)c1OC(C)=O [Compound F80] | 80 to 100 | – | 80 to 100 |
| COc1ccnc(C(=O)N[C@H]2COC[C@H](Cc3ccc(Cl)cc3Cl)[C@@H](OC(=O)C(C)C)[C@H](C)OC2=O)c1OCOC(C)=O [Compound F110] | 80 to 100 | 80 to 100 | 0 to 80 |
| CCCCCO[C@@H]1[C@@H](Cc2ccc(Cl)cc2Cl)COC[C@H](NC(=O)c2nccc(OC)c2OC(=O)CCOC)C(=O)O[C@H]1C [Compound F123] | 80 to 100 | 80 to 100 | 80 to 100 |
| COc1ccnc(C(=O)N[C@H]2COC[C@H](CCC(C)C)[C@@H](OCCCC(F)(F)F)[C@H](C)OC2=O)c1OCOC(C)=O [Compound F107] | 80 to 100 | 80 to 100 | 80 to 100 |
| COc1ccnc(C(=O)N[C@H]2COC[C@H](Cc3ccc(F)cc3)[C@@H](OCC(C)C)[C@H](C)OC2=O)c1OCOC(C)=O [Compound F96] | 80 to 100 | – | 80 to 100 |
